Results on two molecules are retold here after patent US12435104B2, “Cyclic dinucleotides as sting agonists” (BEIGENE, LTD., priority 2019, dated 2025).

Counter-ions that a name gives are not always drawn.

One experiment concerns STING in THP1-Dual Cells. As to the kind of experiment: STING cellular assay in THP1-Dual cells (ISG54-Lucia luciferase reporter). The following applies: Homo sapiens, 24 h, read-out: Cellular activity EC50 in THP1-Dual Cells. (In general: Reporter assays use an easily measured gene product as a stand-in for the process of interest.)
Experiment [1] concerns hSTING-R232 in THP1-Dual KI-hSTING-R232 Cells. As to the kind of experiment: STING cellular assay in THP1-Dual KI-hSTING-R232 cells (Lucia luciferase reporter). The following applies: Homo sapiens, THP1-Dual KI-hSTING-R232, 24 h, read-out: Cellular activity EC50 in THP1-Dual KI-hSTING-R232 Cells.

Take `Nc1nc2c(ncn2[C@@H]2O[C@@H]3COP(=O)(O)O[C@H]4[C@H](n5cnc6c(N)ncnc65)O[C@H](COP(=O)(O)O[C@H]3[C@H]2O)[C@]42CC2(F)F)c(=O)[nH]1` [Example 1, 2-amino-9-((1R,5′S,7′R,8′R,12a′R,14′R,15′R,15a′S)-7′-(6-amino-9H-purin-9-yl)-2,2-difluoro-2′,10′,15′-trihydroxy-2′,10′-dioxidooctahydro-12′H-spiro[cyclopropane-1,16′-[5,8]methanofuro[3,2-1][1,3,6,9,11]pentaoxa[2,10]diphosphacyclotetradecin]-14′-yl)-1,9-dihydro-6H-purin-6-one triethylamine salt]: the 50% effective concentration (EC50) (as a rule, the concentration at which the effect is half-maximal) with STING in THP1-Dual Cells came to 2.69 µM; in experiment [1], 3.21 µM.
The matching figures for `Nc1nc2c(ncn2[C@@H]2O[C@@H]3CO[P@@](O)(=S)O[C@H]4[C@H](n5cnc6c(N)ncnc65)O[C@H](COP(O)(=S)O[C@H]3[C@H]2F)[C@]42CC2(F)F)c(=O)[nH]1` (stereo partly drawn) [Example 2, 2-amino-9-((1R,5′S,7′R,8′R,10′R,12a′R,14′R,15′R,15a′R)-7′-(6-amino-9H-purin-9-yl)-2,2,15′-trifluoro-2′,10′-dihydroxy-2′,10′-disulfidooctahydro-12′H-spiro[cyclopropane-1,16′-[5,8]methanofuro[3,2-1][1,3,6,9,11]pentaoxa[2,10]diphosphacyclotetradecin]-14′-yl)-1,9-dihydro-6H-purin-6-one]: 1.76 µM and 2.32 µM.
